The values that follow are results of earlier work, collected in patent EP4470382A1, “PLANT EXTRACT AND METHODS COMPRISING THEREOF” (FUNDACION UNIVERSITARIA SAN ANTONIO (UCAM), priority 2023, dated 2024).

The conditions of this data set: activity registered in BIOPEP for the sequence.

In the case of “LLYQEPVLGPVRGPFPIIV [peptide derived from bovine b-casein (1-28), identified in bovine casein hydrolysate, BIOPEP ID 8174]”, the Activity result is on record as “immunomodulat ing”.
As to “SQSKVLPVPQKAVPYPQ [Antioxidative peptide identified in bovine casein hydrolysate, BIOPEP ID 9907]”, the Activity entry is on record as “antioxidative”.
YQKFPQY: the Activity entry is “ACE inhibitor”.
“RPKHPIKHQGLPQEVLNENLLRF [Isracidin - antiviral, identified in bovine casein hydrolysate, BIOPEP ID 9530]”: the Activity result is reported as “antiviral”.
With “VYQHQKAMKPWIQPKTKVIPYVRYL [(fr. 183-207) of bovine alpha s2-casein, identified in bovine casein hydrolysate, BIOPEP ID 5469]”, the Activity entry is reported as “antibacterial”.
